According to patent US20230338568A1, “NOVEL ISOMERIC COMPOUNDS COMPRISING A RING-OPENED THIOSUCCINIMIDE GROUP, AN OLIGOPEPTIDE FRAGMENT AND A CHIRAL MOIETY” (priority 2020, published 2023):

Experiments:
[1] = tested on: HER2 positive cell HCC1954; experiment: Cytotoxicity of α-ADCs in HER2 positive cell HCC1954 (CellTiter-Glo); type: cell-based, Human; conditions: HER2 positive HCC1954, 72 h
Description: (§1) Cell viability is tested using CellTiter-Glo® Luminescent Kit (Promega, Cat.# G7573) read by a Biotek Cytation3 Imaging reader.
(§2) Study design was shown as in Table 21 and Table 22. […] Cell vitality formula: Viability = (RLU (X) - RLU (Puro))/(RLU (Control) - RLU (Puro)) ^∗ 100%. A logistic model (4-parameter) will be used for data processing, IC50 calculation and curve fitting by Prism 6 software.

[2] = tested on: HER2 negative cell MDA-MB-468; experiment: Cytotoxicity of α-ADCs in HER2 negative cell MDA-MB-468 (CellTiter-Glo); type: cell-based; conditions: HER2 negative MDA-MB-468, 72 h
Description: as §1, §2

**Q.** What does the source list for `COc1cc2cc(c1Cl)N(C)C(=O)C[C@H](OC(=O)[C@H](C)N(C)C(=O)CCS)[C@]1(C)O[C@H]1[C@H](C)[C@@H]1C[C@@](O)(NC(=O)O1)[C@H](OC)/C=C/C=C(\C)C2` [DM1]?
**A.** IC50 [1]: 4.2 nM; IC50 [2]: 1.5 nM
